Read-outs that look alike come from different tables or passages of the source.
Assays:
[1] = target: T1, His tagged PTPN2 (TC45) protein (Homo sapiens, UniProt P17706); experiment: Mobility shift assay used to determine potency of PTPN2 inhibitors; assay type: biochemical; settings: enzyme 0.5 nM, substrate 2 μM; read-out: PTPN2 MSA IC50
T1 construct: made in house
T1 sequence (P17706 with tags, fused parts or gaps isoform P17706-2): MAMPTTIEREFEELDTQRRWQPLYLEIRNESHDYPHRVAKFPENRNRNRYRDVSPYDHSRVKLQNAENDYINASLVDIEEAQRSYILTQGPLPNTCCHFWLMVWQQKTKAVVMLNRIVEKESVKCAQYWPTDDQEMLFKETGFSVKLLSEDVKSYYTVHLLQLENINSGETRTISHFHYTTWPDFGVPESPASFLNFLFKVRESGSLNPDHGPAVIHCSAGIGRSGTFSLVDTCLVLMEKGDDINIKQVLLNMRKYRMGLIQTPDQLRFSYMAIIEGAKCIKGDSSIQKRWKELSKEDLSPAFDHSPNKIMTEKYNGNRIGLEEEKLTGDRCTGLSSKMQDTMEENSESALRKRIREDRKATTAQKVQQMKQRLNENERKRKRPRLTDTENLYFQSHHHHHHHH
Summary of the method: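 Microfluidic mobility-shift read-out (488/530 nm) of dephosphorylation of an OG488-tagged phosphotyrosine insulin receptor peptide, 2 μM, over 10 min at room temperature, after 10 min compound preincubation with 0.5 nM enzyme. Buffer: 50 mM HEPES pH 7.5, EGTA, EDTA, Tween 20, DTT. IC50 derived from % inhibition over 12-point 1:3 series.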

[2] = system: B16F10 mouse melanoma cells; experiment: B16F10 IFNγ-induced cellular growth inhibition assay; assay type: cell-based; settings: B16-F10, with 0.5 ng/mL IFNγ
Summary of the method: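 B16F10 cells grown in DMEM+10% FBS, with or without 0.5 ng/mL final mouse IFNγ, and dosed in triplicate at 100 μM to 0.001 μM final (0.1% DMSO). Confluence imaged every 6 h for 5 days; percent growth inhibition versus DMSO/with-IFNγ control taken once DMSO/no-IFNγ wells exceeded 95% confluence, giving IC50.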

[3] = system: IFNγ-induced STAT1 phosphorylation in CD14+ monocytes; experiment: Human whole blood pSTAT1 proximal pharmacodynamic (PD) assay; assay type: cell-based; settings: Monocyte, 3 hours compound, IFNγ 20 minutes
Procedure: Example 230: Human Whole Blood pSTAT1 Proximal Pharmacodynamic (PD) Assay Human blood samples were acquired through internal AbbVie Inc's blood donation program in accordance with AbbVie's Occupational Safety and Health Administration protocols. Blood was collected by venipuncture into sodium heparin coated vacutainer tubes and kept at room temperature for no longer than 1 hour prior to the experiment initiation. Human blood samples (90 μL) were added to the individual wells of 96-well plates containing 10 μL of 10× working stock solutions of increasing concentrations of compounds to achieve final concentrations ranging from 0.025 μM to 500 μM and incubated for 3 hours at 37° C. To induce STAT1 phosphorylation the samples were then treated with recombinant human IFNγ (R&D Systems, Catalog^#285-IF, Minneapolis, Minn.; 100 nM final concentration) for 20 minutes, and 3 μL/well BV421 labeled anti-CD14 surface antibody (Biolegend, San Diego, Calif., Catalog^#301830) was added for 45 minutes before fixation and red blood cell lysis was performed with BD Phosflow Lyse/Fix buffer (BD Biosciences, San Jose, Calif., Catalog^#558049). Cells were subsequently permeabilized on ice by the addition of BD Perm III buffer (BD Biosciences, San Jose, Calif., Catalog^#558050) and stored at -80° C. until use. Before staining, the cells were washed with PBS containing 0.1% BSA. Optim/zed concentrations of BUV395 labeled anti-CD45 (BD Biosciences, San Jose, Calif., Catalog^#563792) and PE labeled anti-phospho-STAT1 ([…]; Invitrogen, Carlsbad, Calif., Catalog^#12-9008-42) antibodies were added to the cell suspensions and incubated for 2 hours. The cells were washed with PBS containing 0.1% BSA and analyzed on a BD LSRFortessaTM X20 flow cytometer (BD Biosciences, San Jose, Calif.) using BD FACSDivaTM software. The data was analyzed using FlowJo V10 analysis software (Flow Jo LLC, Ashland, Oreg.). The amount of STAT phosphorylation was measured by the mean fluorescence intensity (MFI) of pSTAT1 in CD14+monocytes. Compound dose-response curves were determined using a four-parameter logistic-nonlinear regression model from which half maximal effective concentrations (EC50) were calculated. All statistical analyses utilized GraphPad software (San Diego, Calif.).

[4] = system: Pan T cells isolated from C57BL6 splenocytes; experiment: T cell function assays (IFNγ and TNFα in supernatants); assay type: cell-based, mouse; settings: 0.3 μM compound, 3 days; for IFNγ [pg/mL] anti-CD3/CD28 / TNFα [pg/mL] anti-CD3/CD28: anti-CD3/CD28 stimulation
Procedure: Example 231: T Cell Function Assays Pan T cells were isolated from C57BL6 splenocytes using a MACS Pan T cell isolation kit II (Miltenyi Biotec, Auburn, Calif.) according to the manufacturer's instructions. Isolated T cells (200,000 cells/well in a 96 well flat-bottom plate) were cultured in RPMI 1640 supplemented with 10% FBS, […] 2-mercaptoethanol, 100 U/mL penicillin, and 100 μg/mL streptomycin, and incubated with 0.3 μM compound or DMSO in duplicates. After 1 hour, mouse T cell activator CD3/CD28 Dynabeads (ThermoFisher Scientific, Waltham, Mass.) were added at a 1:5 beads to cells ratio to stimulate the T cells for 3 days. T cells with or without compound were incubated in the absence of T cell activator beads to evaluate if compounds nonspecifically stimulate the T cells. After 3 days of stimulation, supernatants were collected and IFNγ and TNFα in supernatants were assessed using an MSD V-plex assay (Meso Scale Discovery, Rockville, Md.).

[5] = target: T2, His tagged full-length PTPN1 protein (Homo sapiens, UniProt P18031); experiment: Mobility shift assay (MSA) used to determine potency of PTPN1 inhibitors; assay type: biochemical; settings: enzyme 0.5 nM, substrate 2 μM
T2 construct: made in house
T2 sequence (P18031 with tags, fused parts or gaps): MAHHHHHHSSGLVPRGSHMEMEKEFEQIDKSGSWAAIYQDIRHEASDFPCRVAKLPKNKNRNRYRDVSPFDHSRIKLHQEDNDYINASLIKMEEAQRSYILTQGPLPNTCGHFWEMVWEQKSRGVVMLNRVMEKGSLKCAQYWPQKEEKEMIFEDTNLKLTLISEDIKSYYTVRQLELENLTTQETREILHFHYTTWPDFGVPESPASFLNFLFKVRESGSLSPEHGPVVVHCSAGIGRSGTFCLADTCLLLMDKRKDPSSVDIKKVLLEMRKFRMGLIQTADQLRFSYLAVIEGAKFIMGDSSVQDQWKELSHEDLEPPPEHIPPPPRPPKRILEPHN
Summary of the method: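 Full-length His-tagged human PTPN1 (0.5 nM) was preincubated 10 min at room temperature with compound (12-point, 1:3 dilution) in HEPES pH 7.5 buffer with EGTA, EDTA, Tween 20 and DTT. A 2 μM fluorescent phospho-insulin receptor peptide was then added for 10 min before quench. Mobility-shift % conversion gave % inhibition and IC50.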

[6] = read-out: B16F10 Growth Inhibition IC50

Structure (SMILES)	IC50 [1] [nM]	IC50 ([2]; read-out: B16F10 GI IC50) [nM]	IC50 [2, 6] [nM]	EC50 [3] [nM]	IFNγ [pg/mL] anti-CD3/CD28 [4] [pg/mL]	TNFα [pg/mL] anti-CD3/CD28 [4] [pg/mL]	IFNγ [pg/mL] no stimulation [4] [pg/mL]	TNFα [pg/mL] no stimulation [4] [pg/mL]	IC50 [5] [nM]
O=C1CN(c2c(O)cc3c(c2F)C[C@H](NCCCC(F)(F)F)CC3)S(=O)(=O)N1 (single isomer, unassigned) [Compound 146]	1 to 10	< 1000	< 50	400	–	–	–	–	–
O=C1CN(c2c(O)cc3c(c2F)C[C@H](NCCC2CCCC2)CC3)S(=O)(=O)N1 [Compound 200, 5-{(7R)-7-[(2-cyclopentylethyl)amino]-1-fluoro-3-hydroxy-5,6,7,8-tetrahydronaphthalen-2-yl}-1λ^6,2,5-thiadiazolidine-1,1,3-trione]	–	< 1000	< 50	2400	–	–	–	–	–
CC(C)(O)CCOc1ccc2cc(O)c(N3CC(=O)NS3(=O)=O)c(F)c2c1 [Compound Y]	–	–	5800	38000	67.2	32.5	1.2	1.0	–
O=C1CN(c2c(O)cc3c(c2F)C[C@H](NCCC2(C(F)(F)F)CC2)CC3)S(=O)(=O)N1 (single isomer, unassigned) [Compound 148]	< 1	< 1000	–	–	168.4	123.4	1.0	0.8	< 1
CC(C)CCCC1(N)CCc2cc(O)c(N3CC(=O)NS3(=O)=O)c(F)c2C1 (centres unmarked) [Compound 254, 5-[7-amino-1-fluoro-3-hydroxy-7-(4-methylpentyl)-5,6,7,8-tetrahydronaphthalen-2-yl]-1λ^6,2,5-thiadiazolidine-1,1,3-trione]	10 to 100	1000 to 10000	–	–	97.0	91.2	0.7	1.1	10 to 100
CCC(CC)CCN[C@@H]1CCc2cc(O)c(N3CC(=O)NS3(=O)=O)c(F)c2C1 [Compound 204, 5-{(7R)-7-[(3-ethylpentyl)amino]-1-fluoro-3-hydroxy-5,6,7,8-tetrahydronaphthalen-2-yl}-1λ^6,2,5-thiadiazolidine-1,1,3-trione]	–	–	–	–	148.8	105.4	1.8	1.1	–
CCC1CCc2cc(O)c(N3CC(=O)NS3(=O)=O)c(F)c2C1 (centres unmarked) [Compound Z]	–	–	17800	> 500000	–	–	–	–	–
C[C@@H](O)CCN[C@@H]1CCc2cc(O)c(N3CC(=O)NS3(=O)=O)c(F)c2C1 (single isomer, unassigned) [Compound 307]	1 to 10	< 1000	–	–	66.7	89.5	1.2	1.1	1 to 10
CC(C)CCNC[C@@H]1Cc2cc(O)c(N3CC(=O)NS3(=O)=O)c(F)c2C1 (single isomer, unassigned) [Compound 291]	1 to 10	< 1000	–	–	83.3	91.2	0.7	1.1	1 to 10
C[Si](C)(C)CCCNC1CCc2cc(O)c(N3CC(=O)NS3(=O)=O)c(F)c2C1 (centres unmarked) [Compound 189, 5-(1-fluoro-3-hydroxy-7-{[3-(trimethylsilyl)propyl]amino}-5,6,7,8-tetrahydronaphthalen-2-yl)-1λ^6,2,5-thiadiazolidine-1,1,3-trione]	1 to 10	1000 to 10000	–	–	–	–	–	–	> 100
